The record followed here is US8273754B2, “Substituted 1H-pyrazolo[3,4-D]pyrimidine-6-amine compounds” (ArQule, Inc., priority 2008, dated 2012).

Where two headings read alike, the source gives them in different places.

The test system of this test is cancer cells. Briefly: MTS cell growth inhibition assay (72 hours). It counts as cell-based. The gist of the method: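 Cells in DMEM with 1% FBS, seeded 18 h, then compound-treated 72 h at 37 °C. Viability by MTS/PMS for 4 h, formazan absorbance at 492 nm; IC50 taken as concentration giving 50% absorbance drop, activity banded by percent inhibition.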
Setting [1] is: Homo sapiens, DLD-1, 72 h, DLD-1 cells, read-out: DLD-1 MTS 72 hr at 10 μM.
[2] abbreviates: Homo sapiens, KATO III, 72 h, KATO III cells, read-out: KATO III MTS 72 hr at 10 μM.
[3] abbreviates: Homo sapiens, MDA-MB-231, 72 h, MDA-MB-231 cells, read-out: MDA-MB-231 MTS 72 hr at 10 μM.
Where [4] appears, read: Homo sapiens, NCI-H1299, 72 h, NCI-H1299 cells, read-out: NCI-H1299 MTS 72 hr at 10 μM.
[5] abbreviates: PaCa-2, 72 h, PACA-2 cells, read-out: PACA-2 MTS 72 hr at 10 μM.

As for `N#Cc1cccc(S(=O)(=O)N2CCC(Nc3nc(N)nc4[nH]ncc34)Cc3ccccc32)c1` (stereo not drawn) [Compound 180, 3-({4-[(6-amino-1H-pyrazolo[3,4-d]pyrimidin-4-yl)amino]-2,3,4,5-tetrahydro-1H-1-benzazepin-1-yl}sulfonyl)benzonitrile], the inhibition at 10 µM is, setting by setting: under setting [1], less than 50%; under setting [2], less than 50%; under setting [3], less than 50%; under setting [4], less than 50%; under setting [5], less than 50%.

Regarding `Nc1nc(NC2Cc3ccccc3N(C(=O)Cc3ccccc3)C2)c2cn[nH]c2n1` (stereo not drawn) [Compound 87, 1-(3-(6-amino-1H-pyrazolo[3,4-d]pyrimidin-4-ylamino)-3,4-dihydroquinolin-1(2H)-yl)-2-phenylethanone], the inhibition at 10 µM by setting is: under setting [1], less than 50%; under setting [2], less than 50%; under setting [3], less than 50%; under setting [4], less than 50%; under setting [5], less than 50%.

Consider `CC(C)(C)c1ccc(OCC(=O)N2CC(Nc3nc(N)nc4[nH]ncc34)Cc3ccccc32)cc1` (stereo not drawn) [Compound 97, 1-(3-(6-amino-1H-pyrazolo[3,4-d]pyrimidin-4-ylamino)-3,4-dihydroquinolin-1(2H)-yl)-2-(4-tert-butylphenoxy)ethanone], for which the inhibition at 10 µM is 50 to 79% under setting [1]; 50 to 79% under setting [2]; 50 to 79% under setting [3]; less than 50% under setting [4]; less than 50% under setting [5].

For `CC(C)c1cccc(C(C)C)c1NC(=O)N1CC(Nc2nc(N)nc3[nH]ncc23)Cc2ccccc21` (stereo not drawn) [Compound 112, 3-(6-amino-1H-pyrazolo[3,4-d]pyrimidin-4-ylamino)-N-(2,6-diisopropylphenyl)-3,4-dihydroquinoline-1(2H)-carboxamide], the inhibition at 10 µM runs as follows: under setting [1], less than 50%; under setting [2], less than 50%; under setting [3], less than 50%; under setting [4], less than 50%; under setting [5], less than 50%.

For the molecule `Cc1ccc(S(=O)(=O)N2CCC(Nc3nc(N)nc4[nH]ncc34)Cc3ccccc32)cc1` (stereo not drawn) [Compound 177, N4-{1-[(4-methylphenyl)sulfonyl]-2,3,4,5-tetrahydro-1H-1-benzazepin-4-yl}-1H-pyrazolo[3,4-d]pyrimidine-4,6-diamine], the inhibition at 10 µM by setting is: under setting [1], less than 50%; under setting [2], less than 50%; under setting [3], less than 50%; under setting [4], less than 50%; under setting [5], less than 50%.

As to `Nc1nc(NC2Cc3ccccc3N(C(=O)Nc3cc(C(F)(F)F)ccc3F)C2)c2cn[nH]c2n1` (stereo not drawn) [Compound 108, 3-(6-amino-1H-pyrazolo[3,4-d]pyrimidin-4-ylamino)-N-(2-fluoro-5-(trifluoromethyl)phenyl)-3,4-dihydroquinoline-1(2H)-carboxamide], the inhibition at 10 µM under setting [1] is less than 50%; the inhibition at 10 µM under setting [2] was less than 50%; the inhibition at 10 µM under setting [3] was less than 50%; the inhibition at 10 µM under setting [4] is less than 50%; the inhibition at 10 µM under setting [5] was less than 50%.

As for `Nc1nc(NC2CCN(S(=O)(=O)c3ccsc3)c3ccccc3C2)c2cn[nH]c2n1` (stereo not drawn) [Compound 167, N4-[1-(3-thienylsulfonyl)-2,3,4,5-tetrahydro-1H-1-benzazepin-4-yl]-1H-pyrazolo[3,4-d]pyrimidine-4,6-diamine], the inhibition at 10 µM reads like this: under setting [1], less than 50%; under setting [2], less than 50%; under setting [3], less than 50%; under setting [4], less than 50%; under setting [5], less than 50%.

As for `Nc1nc(NC2Cc3ccccc3N(S(=O)(=O)c3ccc4c(c3)OCCO4)C2)c2cn[nH]c2n1` (stereo not drawn) [Compound 76, N4-(1-(2,3-dihydrobenzo[b][1,4]dioxin-6-ylsulfonyl)-1,2,3,4-tetrahydroquinolin-3-yl)-1H-pyrazolo[3,4-d]pyrimidine-4,6-diamine], the inhibition at 10 µM under setting [1] was less than 50%; the inhibition at 10 µM under setting [2] was less than 50%; the inhibition at 10 µM under setting [3] is less than 50%; the inhibition at 10 µM under setting [4] was less than 50%; the inhibition at 10 µM under setting [5] lay within 50 to 79%.

In the case of `Nc1nc(NC2Cc3ccccc3N(C(=O)CCc3ccccc3)C2)c2cn[nH]c2n1` (stereo not drawn) [Compound 102, 1-(3-(6-amino-1H-pyrazolo[3,4-d]pyrimidin-4-ylamino)-3,4-dihydroquinolin-1(2H)-yl)-3-phenylpropan-1-one], the inhibition at 10 µM reads like this: under setting [1], less than 50%; under setting [2], less than 50%; under setting [3], less than 50%; under setting [4], less than 50%; under setting [5], less than 50%.

Turning to `COc1cccc(S(=O)(=O)N2CCC(Nc3nc(N)nc4[nH]ncc34)Cc3ccccc32)c1` (stereo not drawn) [Compound 175, N4-{1-[(3-methoxyphenyl)sulfonyl]-2,3,4,5-tetrahydro-1H-1-benzazepin-4-yl}-1H-pyrazolo[3,4-d]pyrimidine-4,6-diamine], the inhibition at 10 µM under setting [1] was less than 50%; the inhibition at 10 µM under setting [2] was less than 50%; the inhibition at 10 µM under setting [3] was less than 50%; the inhibition at 10 µM under setting [4] is less than 50%; the inhibition at 10 µM under setting [5] was less than 50%.

In the case of `COc1ccc(OC)c(CC(=O)N2CC(Nc3nc(N)nc4[nH]ncc34)Cc3ccccc32)c1` (stereo not drawn) [Compound 105, 1-(3-(6-amino-1H-pyrazolo[3,4-d]pyrimidin-4-ylamino)-3,4-dihydroquinolin-1(2H)-yl)-2-(2,5-dimethoxyphenyl)ethanone], the inhibition at 10 µM is less than 50% under setting [1]; less than 50% under setting [2]; less than 50% under setting [3]; less than 50% under setting [4]; less than 50% under setting [5].

As to `Cc1ccc(Oc2ccc(S(=O)(=O)N3CC(Nc4nc(N)nc5[nH]ncc45)Cc4ccccc43)cc2)cc1` (stereo not drawn) [Compound 69, N4-(1-(4-(p-tolyloxy)phenylsulfonyl)-1,2,3,4-tetrahydroquinolin-3-yl)-1H-pyrazolo[3,4-d]pyrimidine-4,6-diamine], the inhibition at 10 µM runs as follows: under setting [1], greater than 79%; under setting [2], greater than 79%; under setting [3], greater than 79%; under setting [4], greater than 79%; under setting [5], greater than 79%.

`COc1cc(C)c(S(=O)(=O)N2CC(Nc3nc(N)nc4[nH]ncc34)Cc3ccccc32)c(C)c1C` (stereo not drawn) [Compound 72, N4-(1-(4-methoxy-2,3,6-trimethylphenylsulfonyl)-1,2,3,4-tetrahydroquinolin-3-yl)-1H-pyrazolo[3,4-d]pyrimidine-4,6-diamine]: the inhibition at 10 µM is greater than 79% under setting [1]; greater than 79% under setting [2]; 50 to 79% under setting [3]; less than 50% under setting [4]; greater than 79% under setting [5].

Turning to `Nc1nc(NC2Cc3ccccc3N(C(=O)C(=O)c3c[nH]c4ccccc34)C2)c2cn[nH]c2n1` (stereo not drawn) [Compound 83, 1-(3-(6-amino-1H-pyrazolo[3,4-d]pyrimidin-4-ylamino)-3,4-dihydroquinolin-1(2H)-yl)-2-(1H-indol-3-yl)ethane-1,2-dione], the inhibition at 10 µM under setting [1] was less than 50%; the inhibition at 10 µM under setting [2] is less than 50%; the inhibition at 10 µM under setting [3] is less than 50%; the inhibition at 10 µM under setting [4] is less than 50%; the inhibition at 10 µM under setting [5] was less than 50%.

Turning to `CC1(C)CCc2cc(CN3CC(Nc4nc(N)nc5[nH]ncc45)Cc4ccccc43)ccc2O1` (stereo not drawn) [Compound 147, N4-{1-[(2,2-dimethyl-3,4-dihydro-2H-chromen-6-yl)methyl]-1,2,3,4-tetrahydroquinolin-3-yl}-1H-pyrazolo[3,4-d]pyrimidine-4,6-diamine], the inhibition at 10 µM under setting [1] is greater than 79%; the inhibition at 10 µM under setting [2] is greater than 79%; the inhibition at 10 µM under setting [3] is 50 to 79%; the inhibition at 10 µM under setting [4] is less than 50%; the inhibition at 10 µM under setting [5] was greater than 79%.

Consider `Nc1nc(NC2Cc3ccccc3N(S(=O)(=O)c3ccc(NC(=O)Nc4ccc5c(c4)Cc4ccccc4-5)cc3)C2)c2cn[nH]c2n1` (stereo not drawn) [Compound 198, 1-[4-({3-[(6-amino-1H-pyrazolo[3,4-d]pyrimidin-4-yl)amino]-3,4-dihydroquinolin-1(2H)-yl}sulfonyl)phenyl]-3-(9H-fluoren-2-yl)urea], for which the inhibition at 10 µM under setting [1] is greater than 79%; the inhibition at 10 µM under setting [2] is greater than 79%; the inhibition at 10 µM under setting [3] is less than 50%; the inhibition at 10 µM under setting [4] is greater than 79%; the inhibition at 10 µM under setting [5] is less than 50%.

`Nc1nc(NC2Cc3ccccc3N(S(=O)(=O)c3cccc(NC(=O)Nc4c(Cl)cccc4Cl)c3)C2)c2cn[nH]c2n1` (stereo not drawn) [Compound 208, 1-[3-({3-[(6-amino-1H-pyrazolo[3,4-d]pyrimidin-4-yl)amino]-3,4-dihydroquinolin-1(2H)-yl}sulfonyl)phenyl]-3-(2,6-dichlorophenyl)urea]: the inhibition at 10 µM was less than 50% under setting [1]; less than 50% under setting [2]; less than 50% under setting [3]; less than 50% under setting [4]; 50 to 79% under setting [5].

For the molecule `Nc1nc(NC2Cc3ccccc3N(C(=O)Nc3ccc(F)c(F)c3F)C2)c2cn[nH]c2n1` (stereo not drawn) [Compound 120, 3-(6-amino-1H-pyrazolo[3,4-d]pyrimidin-4-ylamino)-N-(2,3,4-trifluorophenyl)-3,4-dihydroquinoline-1(2H)-carboxamide], the inhibition at 10 µM reads like this: under setting [1], greater than 79%; under setting [2], greater than 79%; under setting [3], 50 to 79%; under setting [4], less than 50%; under setting [5], greater than 79%.
